For the experiment, the target named is wild type CK1δ (Homo sapiens, UniProt P48730). Description: CK1δ kinase assay (Kinase-Glo). The format is biochemical. As to conditions: 10 μM ATP, 2 nM wild type CK1δ, 85 min at 25° C.; read-out: CK1δ inhibition (IC50). The protocol: The CK1δ kinase assay was performed with a buffer (40 μL, pH 7.5) containing 50 mM Tris, 10 mM MgCl2, 1 mM dithiothreitol, 100 μg/mL BSA with 10 μM ATP, 2 nM wild type CK1δ, and 42 μM peptide substrate PLSRTLpSVASLPGL (Flotow et al., 1990) in the presence of 1 μL of a CK1δ inhibitor (e.g., a compound of the present application) or 4% DMSO (e.g., as control). The reaction mixture was incubated for 85 min at 25° C.; detection was carried out as described for the Kinase-Glo Assay (Promega). Luminescent output was measured on the Perkin Elmer Envision plate reader (PerkinElmer, Waltham, Mass.).
Sequence of wild type CK1δ (P48730 whole entry): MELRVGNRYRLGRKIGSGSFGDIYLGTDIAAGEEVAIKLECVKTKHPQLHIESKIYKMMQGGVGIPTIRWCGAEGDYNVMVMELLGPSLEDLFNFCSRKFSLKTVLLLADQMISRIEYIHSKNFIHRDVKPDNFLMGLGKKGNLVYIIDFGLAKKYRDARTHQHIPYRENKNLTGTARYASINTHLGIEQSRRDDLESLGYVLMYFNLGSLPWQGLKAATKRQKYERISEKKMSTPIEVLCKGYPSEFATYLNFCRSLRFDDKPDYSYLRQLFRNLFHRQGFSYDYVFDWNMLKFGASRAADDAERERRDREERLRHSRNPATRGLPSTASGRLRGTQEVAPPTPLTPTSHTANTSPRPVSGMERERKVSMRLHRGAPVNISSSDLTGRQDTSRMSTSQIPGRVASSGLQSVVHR
For orientation: Kinase-Glo measures the ATP left after a reaction by luminescence.

A word on the IC50: it is the concentration at which inhibition is half-maximal.

`Cn1cc(-c2ccncc2)c(-c2cc(F)cc(F)c2)n1` [Compound 3-17, 4-(3-(3,5-difluorophenyl)-1-methyl-1H-pyrazol-4-yl)pyridine]: the concentration for half-maximal inhibition (IC50) amounted to 1020 nM.
Turning to `Fc1ccc(-c2nn3c(c2-c2ccncc2)CN(Cc2ccccc2)CC3)cc1` [Compound 1-12, 5-benzyl-2-(4-fluorophenyl)-3-(pyridin-4-yl)-4,5,6,7-tetrahydropyrazolo[1,5-a]pyrazine], the IC50 came out at 74.9 nM.
On to `Nc1cc(-c2c(-c3ccc(F)cc3)nn3c2CNCC3)ccn1` [Compound 1-58, 4-(2-(4-fluorophenyl)-4,5,6,7-tetrahydropyrazolo[1,5-a]pyrazin-3-yl)pyridin-2-amine], for which the IC50 was 723 nM.
With `CN1CCn2nc(-c3ccc(F)cc3)c(-c3ccncc3)c2C1` [Compound 1-42, 2-(4-fluorophenyl)-5-methyl-3-(pyridin-4-yl)-4,5,6,7-tetrahydropyrazolo[1,5-a]pyrazine], the half-maximal inhibitory concentration (IC50) is 161 nM.
With `C[C@@H]1CNC(=O)c2c(-c3ccncc3)c(-c3ccc(F)cc3)nn21` [Compound 1-44, (R)-2-(4-fluorophenyl)-7-methyl-3-(pyridin-4-yl)-6,7-dihydropyrazolo[1,5-a]pyrazin-4(5H)-one], the IC50 was found to be 1840 nM.
The figure for `Cn1cc(-c2ccncc2)c(-c2ccccc2F)n1` [Compound 3-14, 4-(3-(2-fluorophenyl)-1-methyl-1H-pyrazol-4-yl)pyridine] is 1080 nM.
Consider `Cn1cc(-c2ccncc2)c(-c2cccc(F)c2)n1` [Compound 3-19, 4-(3-(3-fluorophenyl)-1-methyl-1H-pyrazol-4-yl)pyridine], for which the IC50 stood at 281 nM.
For `CCc1cc(-c2c(-c3ccc(F)cc3)nn3c2CN(C(C)=O)CC3)ccn1` [Compound 1-52, 1-(3-(2-ethylpyridin-4-yl)-2-(4-fluorophenyl)-6,7-dihydropyrazolo[1,5-a]pyrazin-5(4H)-yl)ethan-1-one], the IC50 was 3110 nM.
As for `Cc1cc(-c2ccnc3c2C(=O)OC3)n(-c2ccc(F)cc2)n1` [Compound 6-1, 4-(1-(4-fluorophenyl)-3-methyl-1H-pyrazol-5-yl)furo[3,4-b]pyridin-5(7H)-one], the IC50 came out at 93 nM.
Under `Cn1cc(-c2ccncc2)c(-c2ccc(F)cc2)c1C(N)=O` [Compound 3-2, 3-(4-fluorophenyl)-1-methyl-4-(pyridin-4-yl)-1H-pyrrole-2-carboxamide] stands 11100 nM; under `Fc1ccc(-c2nn3c(c2-c2ccncc2)COCC3)cc1` [Compound 1-27, 2-(4-fluorophenyl)-3-(pyridin-4-yl)-6,7-dihydro-4H-pyrazolo[5,1-c][1,4]oxazine], 163 nM.
On to `CC(C)C(=O)N1CCn2nc(-c3ccc(F)cc3)c(-c3ccncc3)c2C1` [Compound 1-32, 1-(2-(4-fluorophenyl)-3-(pyridin-4-yl)-6,7-dihydropyrazolo[1,5-a]pyrazin-5(4H)-yl)-2-methylpropan-1-one], for which the IC50 turned out to be 368 nM.
Regarding `CC(=O)N1CCn2nc(-c3ccc(F)cc3)c(-c3ccnc(C)c3)c2C1` [Compound 1-33, 1-(2-(4-fluorophenyl)-3-(2-methylpyridin-4-yl)-6,7-dihydropyrazolo[1,5-a]pyrazin-5(4H)-yl)ethan-1-one], the IC50 was 177 nM.
For the compound `COC(=O)c1[nH]cc(-c2ccncc2)c1-c1ccc(F)cc1` [Compound 3-4, methyl 3-(4-fluorophenyl)-4-(pyridin-4-yl)-1H-pyrrole-2-carboxylate], the IC50 came to 480 nM.
For `CCC(=O)N1CCn2nc(-c3ccc(F)cc3)c(-c3ccncc3)c2C1` [Compound 1-31, 1-(2-(4-fluorophenyl)-3-(pyridin-4-yl)-6,7-dihydropyrazolo[1,5-a]pyrazin-5(4H)-yl)propan-1-one], the IC50 came out at 81.3 nM.
As for `COC(=O)c1c(-c2ccc(F)cc2)c(-c2ccncc2)cn1C` [Compound 3-5, methyl 3-(4-fluorophenyl)-1-methyl-4-(pyridin-4-yl)-1H-pyrrole-2-carboxylate], the IC50 was 7710 nM.
Under `CN1CCC(C(=O)N2CCn3nc(-c4ccc(F)cc4)c(-c4ccncc4)c3C2)CC1` [Compound 1-36, (2-(4-fluorophenyl)-3-(pyridin-4-yl)-6,7-dihydropyrazolo[1,5-a]pyrazin-5(4H)-yl)(1-methylpiperidin-4-yl)methanone] stands 279 nM.
On to `Cn1cc(-c2ccncc2)c(-c2ccc(F)cc2F)n1` [Compound 3-15, 4-(3-(2,4-difluorophenyl)-1-methyl-1H-pyrazol-4-yl)pyridine], for which the IC50 was 531 nM.
In the case of `Cn1cc(-c2ccncc2)c(-c2ccc(F)c(F)c2)n1` [Compound 3-16, 4-(3-(3,4-difluorophenyl)-1-methyl-1H-pyrazol-4-yl)pyridine], the IC50 was found to be 497 nM.
Under `Cn1cc(-c2ccncc2)c(-c2ccc(F)cc2)c1C#N` [Compound 3-1, 3-(4-fluorophenyl)-1-methyl-4-(pyridin-4-yl)-1H-pyrrole-2-carbonitrile] stands 180 nM; under `Cn1cc(-c2ccnc3[nH]cnc23)c(-c2ccc(F)cc2)c1C#N` [Compound 5-4, 3-(4-fluorophenyl)-4-(3H-imidazo[4,5-b]pyridin-7-yl)-1-methyl-1H-pyrrole-2-carbonitrile], 2200 nM; under `O=C1OCc2nccc(-c3c(-c4ccc(F)cc4)nc4cnccn34)c21` [Compound 1-8, 4-(2-(4-fluorophenyl)imidazo[1,2-a]pyrazin-3-yl)furo[3,4-b]pyridin-5(7H)-one], greater than 100000 nM.
The figure for `Fc1ccc(-n2nc3c(c2-c2ccncc2)CCCC3)cc1` [Compound 1-16, 2-(4-fluorophenyl)-3-(pyridin-4-yl)-4,5,6,7-tetrahydro-2H-indazole] is 9780 nM; for `CC(=O)N1CCn2nc(-c3ccc(F)cc3)c(-c3ccnc(C(C)C)c3)c2C1` [Compound 1-53, 1-(2-(4-fluorophenyl)-3-(2-isopropylpyridin-4-yl)-6,7-dihydropyrazolo[1,5-a]pyrazin-5(4H)-yl)ethan-1-one] it is 17000 nM; for `CC(=O)N1CCn2nc(-c3ccc(F)cc3)c(-c3cc[n+]([O-])c(C)c3)c2C1` [Compound 1-34, 4-(5-acetyl-2-(4-fluorophenyl)-4,5,6,7-tetrahydropyrazolo[1,5-a]pyrazin-3-yl)-2-methylpyridine-1-oxide] it is greater than 100000 nM.
Turning to `Cn1nc(-c2ccncc2)c(-c2ccc(F)cc2)n1` [Compound 3-6, 4-(5-(4-fluorophenyl)-2-methyl-2H-1,2,3-triazol-4-yl)pyridine], the IC50 turned out to be 178 nM.
Turning to `Cc1cc(-c2c(-c3ccc(F)cc3)nn3c2CN(C(=O)C2CCN(C)CC2)CC3)ccn1` [Compound 1-55, (2-(4-fluorophenyl)-3-(2-methylpyridin-4-yl)-6,7-dihydropyrazolo[1,5-a]pyrazin-5(4H)-yl)(1-methylpiperidin-4-yl)methanone], the IC50 is 496 nM.
In the case of `C[C@H]1Cn2nc(-c3ccc(F)cc3)c(-c3ccncc3)c2CO1` [Compound 1-45, (S)-2-(4-fluorophenyl)-6-methyl-3-(pyridin-4-yl)-6,7-dihydro-4H-pyrazolo[5,1-c][1,4]oxazine], the IC50 was 370 nM.
Regarding `Nc1cc(-c2c(-c3ccc(F)cc3)nn3c2OCC3)ccn1` [Compound 1-54, 4-(6-(4-fluorophenyl)-2,3-dihydropyrazolo[5,1-b]oxazol-7-yl)pyridin-2-amine], the IC50 was 800 nM.
Take `Fc1ccc(-c2nocc2-c2ccncc2)cc1` [Compound 3-20, 3-(4-fluorophenyl)-4-(pyridin-4-yl)isoxazole]: the IC50 is 3660 nM.
Consider `Cc1cc(-c2c(-c3ccc(F)cc3)nn3c2CN(C)CC3)ccn1` [Compound 1-56, 2-(4-fluorophenyl)-5-methyl-3-(2-methylpyridin-4-yl)-4,5,6,7-tetrahydropyrazolo[1,5-a]pyrazine], for which the concentration for half-maximal inhibition (IC50) was found to be 106 nM.
For the compound `Fc1ccc(-n2nncc2-c2ccncc2)cc1` [Compound 4-1, 4-(1-(4-fluorophenyl)-1H-1,2,3-triazol-5-yl)pyridine], the IC50 is 215 nM.
Take `Fc1ccc(-c2nc3cnccn3c2-c2ccncc2)cc1` [Compound 1-5, 2-(4-fluorophenyl)-3-(pyridin-4-yl)imidazo[1,2-a]pyrazine]: the IC50 was determined as 499 nM.
The figure for `Fc1ccc(-c2nn3c(c2-c2ccncc2)CNCC3)cc1` [Compound 1-13, 2-(4-fluorophenyl)-3-(pyridin-4-yl)-4,5,6,7-tetrahydropyrazolo[1,5-a]pyrazine] is 67.3 nM; for `O=C1OCc2nccc(-c3cn4c(c3-c3ccc(F)cc3)C(=O)NCC4)c21` [Compound 5-5, 4-(8-(4-fluorophenyl)-1-oxo-1,2,3,4-tetrahydropyrrolo[1,2-a]pyrazin-7-yl)furo[3,4-b]pyridin-5(7H)-one] it is 320 nM; for `Fc1ccc(-c2nn3c(c2-c2ccncc2)COCCC3)cc1` [Compound 1-47, 2-(4-fluorophenyl)-3-(pyridin-4-yl)-7,8-dihydro-4H,6H-pyrazolo[5,1-c][1,4]oxazepine] it is 686 nM.
Regarding `CC(=O)N1CCn2c(nc(-c3ccc(F)cc3)c2-c2ccncc2)C1` [Compound 1-7, 1-(2-(4-fluorophenyl)-3-(pyridin-4-yl)-5,6-dihydroimidazo[1,2-a]pyrazin-7(8H)-yl)ethan-1-one], the IC50 worked out at 614 nM.
For `Cn1cc(-c2ccnc3c2C(=O)OC3)c(-c2ccc(F)cc2)c1C#N` [Compound 5-1, 3-(4-fluorophenyl)-1-methyl-4-(5-oxo-5,7-dihydrofuro[3,4-b]pyridin-4-yl)-1H-pyrrole-2-carbonitrile], the IC50 worked out at 132 nM.
Take `Cn1cc(-c2ccncc2)c(-c2ccc(F)cc2Cl)n1` [Compound 3-18, 4-(3-(2-chloro-4-fluorophenyl)-1-methyl-1H-pyrazol-4-yl)pyridine]: the IC50 amounted to 4390 nM.

Source of the values: US20230192699A1, “COMPOUNDS AS CASEIN KINASE INHIBITORS” (GRITSCIENCE BIOPHARMACEUTICALS CO., LTD., priority 2020, published 2023).
